In ChEMBL document CHEMBL4715771 (Bioorg Med Chem, 2016):
The source made the active and inactive calls. The rule behind the calls is not given here.

Assays:
MDA-MB-231 [1] = test: Antiproliferative activity against triple-negative human MDA-MB-231 cells overexpressing c-Met assessed as inhibition of cell proliferation measured after 72 hrs by MTT assay; type: functional, cell-based; settings: MDA-MB-231, 72 h
MDA-MB-468 = test: Antiproliferative activity against triple-negative human MDA-MB-468 cells overexpressing c-Met assessed as inhibition of cell proliferation measured after 72 hrs by MTT assay; type: functional, cell-based; settings: MDA-MB-468, 72 h
[2] = biological target: T1, Hepatocyte growth factor receptor (Homo sapiens, UniProt P08581); test: Inhibition of c-MET kinase domain (unknown origin) using Tyr6 peptide as substrate measured after 1 hr in presence of ATP by Z'-lyte kinase assay
T1 sequence (P08581 whole entry, the tested form may be a part): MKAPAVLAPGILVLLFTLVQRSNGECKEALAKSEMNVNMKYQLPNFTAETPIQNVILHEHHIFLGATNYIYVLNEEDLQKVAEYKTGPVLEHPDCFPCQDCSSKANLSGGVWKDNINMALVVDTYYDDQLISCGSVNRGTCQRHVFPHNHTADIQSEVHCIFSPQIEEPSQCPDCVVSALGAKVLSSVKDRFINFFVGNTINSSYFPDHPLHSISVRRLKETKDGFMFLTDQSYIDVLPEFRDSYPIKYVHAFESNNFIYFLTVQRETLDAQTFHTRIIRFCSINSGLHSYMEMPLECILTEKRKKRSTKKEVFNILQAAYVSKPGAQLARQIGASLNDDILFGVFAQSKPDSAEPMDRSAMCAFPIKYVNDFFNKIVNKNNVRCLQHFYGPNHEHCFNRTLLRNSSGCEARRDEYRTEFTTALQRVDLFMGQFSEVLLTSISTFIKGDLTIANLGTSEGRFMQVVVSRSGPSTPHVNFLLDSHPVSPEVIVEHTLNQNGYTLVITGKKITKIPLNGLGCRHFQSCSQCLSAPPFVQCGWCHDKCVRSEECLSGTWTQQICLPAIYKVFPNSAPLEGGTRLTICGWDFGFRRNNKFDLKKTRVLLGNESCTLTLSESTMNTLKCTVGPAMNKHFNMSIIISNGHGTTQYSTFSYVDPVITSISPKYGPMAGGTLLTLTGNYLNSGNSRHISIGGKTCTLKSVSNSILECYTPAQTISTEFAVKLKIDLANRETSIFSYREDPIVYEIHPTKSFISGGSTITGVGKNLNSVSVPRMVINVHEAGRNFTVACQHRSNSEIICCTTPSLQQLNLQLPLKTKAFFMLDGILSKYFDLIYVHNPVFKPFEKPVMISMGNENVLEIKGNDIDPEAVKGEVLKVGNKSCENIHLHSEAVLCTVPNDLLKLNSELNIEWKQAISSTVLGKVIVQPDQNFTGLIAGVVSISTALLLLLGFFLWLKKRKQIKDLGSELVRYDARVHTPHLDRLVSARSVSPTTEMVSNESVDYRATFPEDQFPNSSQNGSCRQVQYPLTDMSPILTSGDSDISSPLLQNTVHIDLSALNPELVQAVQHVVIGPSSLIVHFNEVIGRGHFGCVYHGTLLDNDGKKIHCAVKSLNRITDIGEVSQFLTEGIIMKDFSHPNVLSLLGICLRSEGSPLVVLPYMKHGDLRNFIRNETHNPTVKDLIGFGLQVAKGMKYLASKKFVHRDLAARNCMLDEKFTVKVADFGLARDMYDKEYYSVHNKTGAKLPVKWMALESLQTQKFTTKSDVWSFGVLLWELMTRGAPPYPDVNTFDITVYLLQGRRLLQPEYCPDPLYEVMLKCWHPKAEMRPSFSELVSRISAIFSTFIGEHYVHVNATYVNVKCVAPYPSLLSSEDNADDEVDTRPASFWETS

MCF7 = test: Antiproliferative activity against estrogen-dependent human MCF7 cells assessed as inhibition of cell proliferation measured after 72 hrs by MTT assay; type: functional, cell-based; settings: MCF7, 72 h
T47D = test: Antiproliferative activity against estrogen-dependent human T47D cells assessed as inhibition of cell proliferation measured after 72 hrs by MTT assay; type: functional, cell-based
SK-BR-3 = test: Antiproliferative activity against ER-deficient human SK-BR-3 cells overexpressing HER2 assessed as inhibition of cell proliferation measured after 72 hrs by MTT assay; type: functional, cell-based; settings: SK-BR-3, 72 h
BT-474 = test: Antiproliferative activity against ER-positive human BT-474 cells overexpressing HER2 assessed as inhibition of cell proliferation measured after 72 hrs by MTT assay; type: functional, cell-based; settings: BT-474, 72 h
[3] = biological target: T1, Hepatocyte growth factor receptor; test: Inhibition of c-MET in human MDA-MB-231 cells assessed as downregulation of activated phosphorylated Akt level measured after 72 hrs in presence of HGF by immunoblot analysis; type: cell-based; settings: dose 1-3 µM
[4] = biological target: T1, Hepatocyte growth factor receptor; test: Inhibition of c-MET in human MDA-MB-231 cells assessed as downregulation of activated phosphorylated mTOR level measured after 72 hrs in presence of HGF by immunoblot analysis; type: cell-based; settings: dose 1-3 µM
[5] = biological target: T1, Hepatocyte growth factor receptor; test: Inhibition of c-MET in human MDA-MB-231 cells assessed as downregulation of activated phosphorylated FAK level measured after 72 hrs in presence of HGF by immunoblot analysis; type: cell-based; settings: dose 1-3 µM
[6] = biological target: T1, Hepatocyte growth factor receptor; test: Inhibition of c-MET in human MDA-MB-231 cells assessed as downregulation of activated phosphorylated paxillin level measured after 72 hrs in presence of HGF by immunoblot analysis; type: cell-based; settings: dose 1-3 µM
[7] = biological target: T1, Hepatocyte growth factor receptor; test: Inhibition of c-MET in human MDA-MB-231 cells assessed as downregulation of activated phosphorylated MAPK level measured after 72 hrs in presence of HGF by immunoblot analysis; type: cell-based; settings: dose 1-3 µM
MDA-MB-231 [8] = test: Cytotoxicity against human MDA-MB-231 cells assessed as induction of necrotic cell death by measuring LDH release at 0.5 to 8 uM measured after 24 hrs by LDH release assay; type: functional, cell-based; settings: dose 0.5-8 µM
MCF-10A = test: Cytotoxicity against human MCF-10A cells assessed as cell death at 1 to 15 uM measured after 24 hrs by MTT assay; type: cell-based; settings: dose 1-15 µM
[9] = Cytotoxicity against human MCF-10A cells assessed as reduction in cell viability at 15 uM measured after 24 hrs by MTT assay relative to control; type: cell-based; settings: read-out: INH
[10] = biological target: Tyrosine-protein kinase ABL1 (Homo sapiens) (UniProt P00519); test: Inhibition of recombinant full length His-tagged human ABL1 expressed in baculovirus expression system at 10 uM by TR-FRET assay relative to control
[11] = biological target: ALK tyrosine kinase receptor (Homo sapiens) (UniProt Q9UM73); test: Inhibition of recombinant GST-tagged human ALK (1058 to 1620 residues) expressed in baculovirus expression system at 10 uM by TR-FRET assay relative to control
[12] = biological target: Tyrosine-protein kinase receptor UFO (Homo sapiens) (UniProt P30530); test: Inhibition of recombinant His-tagged human AXL (473 to end residues) expressed in insect cells at 10 uM by TR-FRET assay relative to control
Chain of Tyrosine-protein kinase receptor UFO (Homo sapiens) (P30530 whole entry, the tested form may be a part): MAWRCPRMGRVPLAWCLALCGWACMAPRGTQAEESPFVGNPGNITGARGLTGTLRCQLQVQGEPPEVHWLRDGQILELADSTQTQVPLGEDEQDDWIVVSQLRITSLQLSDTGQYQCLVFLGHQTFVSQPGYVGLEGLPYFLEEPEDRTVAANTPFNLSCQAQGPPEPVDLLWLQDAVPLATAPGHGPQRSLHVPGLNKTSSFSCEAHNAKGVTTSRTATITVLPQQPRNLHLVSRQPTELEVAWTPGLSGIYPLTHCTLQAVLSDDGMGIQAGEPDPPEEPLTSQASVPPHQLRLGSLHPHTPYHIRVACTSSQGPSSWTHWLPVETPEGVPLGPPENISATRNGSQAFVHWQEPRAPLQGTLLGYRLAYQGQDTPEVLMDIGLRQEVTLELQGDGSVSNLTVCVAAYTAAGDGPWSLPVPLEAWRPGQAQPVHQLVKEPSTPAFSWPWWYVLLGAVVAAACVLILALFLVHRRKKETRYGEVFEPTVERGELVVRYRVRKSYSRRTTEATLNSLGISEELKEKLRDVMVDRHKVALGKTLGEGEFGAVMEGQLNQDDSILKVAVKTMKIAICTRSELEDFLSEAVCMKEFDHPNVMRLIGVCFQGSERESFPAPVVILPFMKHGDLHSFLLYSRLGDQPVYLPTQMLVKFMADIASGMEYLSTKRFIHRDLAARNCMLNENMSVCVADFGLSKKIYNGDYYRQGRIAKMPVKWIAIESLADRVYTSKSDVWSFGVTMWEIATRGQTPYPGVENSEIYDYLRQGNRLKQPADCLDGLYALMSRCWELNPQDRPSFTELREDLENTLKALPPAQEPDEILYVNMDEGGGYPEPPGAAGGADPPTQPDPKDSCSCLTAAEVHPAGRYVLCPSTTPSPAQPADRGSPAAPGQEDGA

[13] = biological target: Epidermal growth factor receptor (Homo sapiens) (UniProt P00533); test: Inhibition of recombinant GST-tagged human EGFR (668 to 1210 residues) expressed in baculovirus expression system at 10 uM by TR-FRET assay relative to control
Chain of Epidermal growth factor receptor (Homo sapiens) (P00533 whole entry, the tested form may be a part): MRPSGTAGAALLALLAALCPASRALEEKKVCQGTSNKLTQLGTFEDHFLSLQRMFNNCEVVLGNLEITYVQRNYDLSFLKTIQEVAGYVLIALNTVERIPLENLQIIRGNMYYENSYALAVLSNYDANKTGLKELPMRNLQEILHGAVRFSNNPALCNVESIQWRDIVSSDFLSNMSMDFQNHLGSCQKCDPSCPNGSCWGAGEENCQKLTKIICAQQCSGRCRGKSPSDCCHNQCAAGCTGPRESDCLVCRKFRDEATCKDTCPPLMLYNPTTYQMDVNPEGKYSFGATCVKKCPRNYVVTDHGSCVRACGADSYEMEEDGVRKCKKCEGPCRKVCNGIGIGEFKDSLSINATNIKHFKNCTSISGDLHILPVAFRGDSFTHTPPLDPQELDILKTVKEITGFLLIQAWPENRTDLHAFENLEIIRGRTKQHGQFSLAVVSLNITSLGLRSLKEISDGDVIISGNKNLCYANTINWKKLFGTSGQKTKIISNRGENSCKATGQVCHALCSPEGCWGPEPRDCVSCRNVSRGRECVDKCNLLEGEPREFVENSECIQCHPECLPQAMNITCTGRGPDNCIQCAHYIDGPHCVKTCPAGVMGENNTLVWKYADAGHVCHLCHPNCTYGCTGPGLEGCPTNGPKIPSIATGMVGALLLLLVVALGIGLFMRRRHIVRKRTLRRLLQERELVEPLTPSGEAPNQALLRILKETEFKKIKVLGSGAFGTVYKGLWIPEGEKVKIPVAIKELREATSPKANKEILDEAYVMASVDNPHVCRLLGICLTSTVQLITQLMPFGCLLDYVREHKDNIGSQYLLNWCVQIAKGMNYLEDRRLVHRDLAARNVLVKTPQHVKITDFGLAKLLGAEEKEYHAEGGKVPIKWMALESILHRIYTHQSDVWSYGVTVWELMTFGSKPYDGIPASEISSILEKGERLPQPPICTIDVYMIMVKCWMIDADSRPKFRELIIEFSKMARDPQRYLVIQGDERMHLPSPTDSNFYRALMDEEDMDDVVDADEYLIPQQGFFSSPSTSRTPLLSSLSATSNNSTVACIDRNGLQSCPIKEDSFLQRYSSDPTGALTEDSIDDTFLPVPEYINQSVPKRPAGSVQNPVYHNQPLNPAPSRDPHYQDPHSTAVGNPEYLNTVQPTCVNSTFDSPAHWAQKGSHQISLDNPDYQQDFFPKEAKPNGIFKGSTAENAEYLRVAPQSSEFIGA

[14] = biological target: Receptor tyrosine-protein kinase erbB-2 (Homo sapiens) (UniProt P04626); test: Inhibition of recombinant His-tagged human Erbb2 (676 to 1255 residues) expressed in baculovirus expression system at 10 uM by TR-FRET assay relative to control
Chain of Receptor tyrosine-protein kinase erbB-2 (Homo sapiens) (P04626 whole entry, the tested form may be a part): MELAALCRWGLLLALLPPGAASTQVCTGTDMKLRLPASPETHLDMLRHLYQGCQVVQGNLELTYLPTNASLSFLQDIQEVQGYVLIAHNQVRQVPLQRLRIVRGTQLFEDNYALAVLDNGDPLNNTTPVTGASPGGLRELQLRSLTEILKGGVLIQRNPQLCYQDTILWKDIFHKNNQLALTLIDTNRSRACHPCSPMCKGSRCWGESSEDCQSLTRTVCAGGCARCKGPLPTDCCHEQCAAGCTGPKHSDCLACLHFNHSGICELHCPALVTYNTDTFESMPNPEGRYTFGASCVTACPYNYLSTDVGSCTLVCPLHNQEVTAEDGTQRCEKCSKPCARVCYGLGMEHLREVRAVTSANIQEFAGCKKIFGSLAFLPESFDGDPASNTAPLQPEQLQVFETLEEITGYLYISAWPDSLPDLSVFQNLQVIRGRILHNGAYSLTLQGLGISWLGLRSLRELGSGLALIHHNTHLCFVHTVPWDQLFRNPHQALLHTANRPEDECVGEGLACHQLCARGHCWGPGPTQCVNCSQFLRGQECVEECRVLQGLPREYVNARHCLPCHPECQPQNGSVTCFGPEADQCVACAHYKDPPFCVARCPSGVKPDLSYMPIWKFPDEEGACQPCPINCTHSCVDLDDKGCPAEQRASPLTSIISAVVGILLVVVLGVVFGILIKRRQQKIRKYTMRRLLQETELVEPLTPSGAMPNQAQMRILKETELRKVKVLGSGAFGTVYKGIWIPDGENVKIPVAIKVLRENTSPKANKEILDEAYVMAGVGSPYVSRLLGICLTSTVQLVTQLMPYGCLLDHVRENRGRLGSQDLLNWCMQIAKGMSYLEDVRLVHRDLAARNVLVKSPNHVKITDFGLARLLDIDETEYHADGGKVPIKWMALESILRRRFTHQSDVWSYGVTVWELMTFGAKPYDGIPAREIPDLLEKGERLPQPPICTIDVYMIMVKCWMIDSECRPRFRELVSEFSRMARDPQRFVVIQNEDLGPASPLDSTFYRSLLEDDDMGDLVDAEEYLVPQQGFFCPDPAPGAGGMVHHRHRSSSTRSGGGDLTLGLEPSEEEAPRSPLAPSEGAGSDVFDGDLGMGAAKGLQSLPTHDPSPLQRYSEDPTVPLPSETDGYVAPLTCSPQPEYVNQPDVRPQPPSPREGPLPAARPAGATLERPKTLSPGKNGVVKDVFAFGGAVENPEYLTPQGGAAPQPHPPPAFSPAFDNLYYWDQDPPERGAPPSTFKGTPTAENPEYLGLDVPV

[15] = biological target: Fibroblast growth factor receptor 1 (Homo sapiens) (UniProt P11362); test: Inhibition of recombinant His-tagged human FGFR1 (308 to 731 residues) expressed in baculovirus expression system at 10 uM by TR-FRET assay relative to control
[16] = biological target: Insulin-like growth factor 1 receptor (Homo sapiens) (UniProt P08069); test: Inhibition of recombinant C-terminal His-tagged human IGF1R (960 to 1397 residues) expressed in baculovirus expression system at 10 uM by TR-FRET assay relative to control
[17] = biological target: T1, Hepatocyte growth factor receptor; test: Inhibition of recombinant N-terminal His-tagged human MET (956 to 1390 residues) expressed in baculovirus expression system at 10 uM by TR-FRET assay relative to control
[18] = biological target: Macrophage-stimulating protein receptor (Homo sapiens) (UniProt Q04912); test: Inhibition of recombinant GST-tagged human RON (983 to 1440 residues) expressed in baculovirus expression system at 10 uM by TR-FRET assay relative to control
[19] = biological target: Proto-oncogene tyrosine-protein kinase ROS (Homo sapiens) (UniProt P08922); test: Inhibition of recombinant GST-tagged human ROS1 (1883 to 2347 residues) expressed in baculovirus expression system at 10 uM by TR-FRET assay relative to control
MDA-MB-231 [20] = test: Antitumor activity against GFP-tagged human MDA-MB-231 cells xenografted in athymic nude-Foxn1nu/Foxn1+ mouse assessed as the tumor volume at 10 mg/kg, ip dosed 3 times per week for 3 weeks treatment started 10 days of post inoculation by digital caliper method (reference value: 2048 mm3); type: functional
MDA-MB-231 [21] = test: Antitumor activity against GFP-tagged human MDA-MB-231 cells xenografted in athymic nude-Foxn1nu/Foxn1+ mouse assessed as the reduction in tumor growth at 10 mg/kg, ip dosed 3 times per week for 3 weeks treatment started 10 days of post inoculation digital caliper method relative to control; type: functional; settings: MDA-MB-231, ip, 504 h, read-out: TGI
[22] = Toxicity in athymic nude-Foxn1nu/Foxn1+ mouse assessed as effect on body weight at 10 mg/kg, ip dosed 3 times per week for 3 weeks treatment started 10 days of post inoculation; type: organism-based; settings: in vivo, 504 h
Mus musculus = test: Downregulation of phosphorylated c-Met level in tumor of athymic nude-Foxn1nu/Foxn1+ mouse xenografted with GFP-tagged human MDA-MB-231 cells at 10 mg/kg, ip dosed 3 times per week for 3 weeks treatment started 10 days of post inoculation by western blot analysis; type: functional, organism-based
[23] = biological target: T1, Hepatocyte growth factor receptor; test: Inhibition of c-MET in human MDA-MB-231 cells assessed as downregulation of activated phosphorylated c-MET level at 1 to 3 uM measured after 72 hrs in presence of HGF by immunoblot analysis; type: cell-based; settings: dose 1-3 µM
MDA-MB-231 [24] = test: Antiinvasive activity against human MDA-MB-231 cells overexpressing c-Met assessed as inhibition of cell invasion at 2 uM measured after 24 hrs by Calcein AM dye based fluorescence assay; type: functional
MDA-MB-231 [25] = test: cells; settings: Homo sapiens, MDA-MB-231, 23 h
MDA-MB-231 [26] = test: cells; settings: Homo sapiens, MDA-MB-231, 24 h
[27] = biological target: T1, Hepatocyte growth factor receptor; test: Inhibition of c-MET in human MDA-MB-231 cells assessed as downregulation of activated phosphorylated c-MET level measured after 72 hrs in presence of HGF by immunoblot analysis; type: cell-based; settings: dose 25-50 µM

C/C1=C\[C@H](OC(=O)Nc2ccc(Cl)c(Cl)c2)C[C@](C)(O)/C=C/[C@H](C(C)C)CC/C(C)=C/CC1
IC50 (MDA-MB-231 [1]): 8.5 µM | IC50 (MDA-MB-468): 10.7 µM

C/C1=C\[C@H](OC(=O)NC2CCCCC2)C[C@](C)(O)/C=C/[C@H](C(C)C)CC/C(C)=C/CC1
IC50 (MDA-MB-231 [1]): 38.2 µM | IC50 (MDA-MB-468): 39.6 µM

C/C1=C\[C@H](OC(=O)Nc2cccc3ccccc23)C[C@](C)(O)/C=C/[C@H](C(C)C)CC/C(C)=C/CC1
IC50 (MDA-MB-231 [1]): > 50 µM | IC50 (MDA-MB-468): > 50 µM

C/C1=C\[C@H](OC(=O)Nc2c(Cl)cccc2Cl)C[C@](C)(O)/C=C/[C@H](C(C)C)CC/C(C)=C/CC1
IC50 (MDA-MB-231 [1]): 10.8 µM | IC50 (MDA-MB-468): 12.3 µM

CCc1ccc(NC(=O)O[C@H]2/C=C(\C)CC/C=C(\C)CC[C@@H](C(C)C)/C=C/[C@@](C)(O)C2)cc1
IC50 (MDA-MB-231 [1]): 26.3 µM | IC50 (MDA-MB-468): 25.7 µM

C/C1=C\[C@H](OC(=O)Nc2ccc(-c3ccccc3)cc2)C[C@](C)(O)/C=C/[C@H](C(C)C)CC/C(C)=C/CC1
IC50 (MDA-MB-231 [1]): > 50 µM | IC50 (MDA-MB-468): > 50 µM

C/C1=C\[C@H](OC(=O)Nc2ccc(C(F)(F)F)cc2)C[C@](C)(O)/C=C/[C@H](C(C)C)CC/C(C)=C/CC1
IC50 (MDA-MB-231 [1]): 8.9 µM | IC50 (MDA-MB-468): 11.6 µM

C/C1=C\[C@H](OC(=O)Nc2ccc(Cl)cc2)C[C@](C)(O)/C=C/[C@H](C(C)C)CC/C(C)=C/CC1
IC50 (MDA-MB-231 [1]): 13.4 µM | IC50 (MDA-MB-468): 12.8 µM

C/C1=C\[C@H](OC(=O)Nc2cccc(C)c2)C[C@](C)(O)/C=C/[C@H](C(C)C)CC/C(C)=C/CC1
IC50 (MDA-MB-231 [1]): 27.6 µM | IC50 (MDA-MB-468): 27.9 µM

C/C1=C\[C@H](OC(=O)Nc2ccccc2Cl)C[C@](C)(O)/C=C/[C@H](C(C)C)CC/C(C)=C/CC1
IC50 (MDA-MB-231 [1]): 13.7 µM | IC50 (MDA-MB-468): 14.5 µM

C/C1=C\[C@H](OC(=O)Nc2ccccc2)C[C@](C)(O)/C=C/[C@H](C(C)C)CC/C(C)=C/CC1
IC50 (MDA-MB-231 [1]): 19.8 µM | IC50 (MDA-MB-468): 22.7 µM

C/C1=C\[C@H](OC(=O)Nc2ccc(Cl)cc2Cl)C[C@](C)(O)/C=C/[C@H](C(C)C)CC/C(C)=C/CC1
IC50 (MDA-MB-231 [1]): 10.4 µM | IC50 (MDA-MB-468): 15.4 µM

C/C1=C\[C@H](OC(=O)Nc2ccccc2F)C[C@](C)(O)/C=C/[C@H](C(C)C)CC/C(C)=C/CC1
IC50 (MDA-MB-231 [1]): 16.1 µM | IC50 (MDA-MB-468): 17.8 µM

C/C1=C\[C@H](OC(=O)Nc2cccc(Cl)c2)C[C@](C)(O)/C=C/[C@H](C(C)C)CC/C(C)=C/CC1
IC50 (MDA-MB-231 [1]): 9.1 µM | IC50 (MDA-MB-468): 10.6 µM | IC50 [2]: 3.4 µM

C/C1=C\[C@H](OC(=O)Nc2cc(Cl)cc(Cl)c2)C[C@](C)(O)/C=C/[C@H](C(C)C)CC/C(C)=C/CC1
IC50 (MDA-MB-231 [1]): 5.3 µM | IC50 (MDA-MB-468): 6.6 µM | IC50 [2]: 2.9 µM

C/C1=C\[C@H](OC(=O)Nc2cccc(C(F)(F)F)c2)C[C@](C)(O)/C=C/[C@H](C(C)C)CC/C(C)=C/CC1
IC50 (MDA-MB-231 [1]): 4.9 µM | IC50 (MDA-MB-468): 5.8 µM | IC50 [2]: 1.8 µM

C/C1=C\[C@H](OC(=O)Nc2cccc(F)c2)C[C@](C)(O)/C=C/[C@H](C(C)C)CC/C(C)=C/CC1
IC50 (MDA-MB-231 [1]): 16.2 µM | IC50 (MDA-MB-468): 19.5 µM

C/C1=C\[C@H](OC(=O)Nc2cc(C(F)(F)F)cc(C(F)(F)F)c2)C[C@](C)(O)/C=C/[C@H](C(C)C)CC/C(C)=C/CC1
IC50 (MCF7): 7.2 µM | IC50 (T47D): 11.2 µM | IC50 (MDA-MB-231 [1]): 1.3 µM | IC50 (MDA-MB-468): 2.1 µM | IC50 (SK-BR-3): 4.7 µM | IC50 (BT-474): 3.9 µM | IC50 [2]: 1.1 µM | inhibition [2]: Dose-dependent effect | inhibition [3]: Dose-dependent effect | inhibition [4]: Dose-dependent effect | inhibition [5]: Dose-dependent effect | inhibition [6]: Dose-dependent effect | inhibition [7]: Dose-dependent effect | Activity (MDA-MB-231 [8]): Active | Activity (MCF-10A): Non-Toxic | cytotoxicity at 24 h, 15 µM [9]: 8.3% | inhibition [10]: 31% | inhibition [11]: 10% | inhibition [12]: 11% | inhibition [13]: 9% | inhibition [14]: 22% | inhibition [15]: 49% | inhibition [16]: 30% | inhibition [17]: 84% | inhibition [18]: 31% | inhibition [19]: 3% | Activity (MDA-MB-231 [20]): 716 mm3 | inhibition in vivo at 10 mg/kg (MDA-MB-231 [21]): 66.7% | Activity [22]: Non-Toxic | inhibition (Mus musculus): Active | inhibition [23]: Dose-dependent effect | Activity (MDA-MB-231 [24]): Active | IC50 (MDA-MB-231 [25]): 1.4 µM | IC50 (MDA-MB-231 [26]): 1.7 µM

C/C1=C\[C@H](O)C[C@](C)(O)/C=C/[C@H](C(C)C)CC/C(C)=C/CC1
IC50 [2]: 22.6 µM | inhibition [27]: Dose-dependent effect
